Reference: the NIST ThermoML archive (doi:10.1016/j.jct.2014.04.016)
Where “and” joins values, the source holds several entries; their conditions need not be identical. Equal entries are not always repeated. ± gives the expanded uncertainty stated by the source.

Experiment: xn = mol fraction of the nth substance listed
Details: 100 kPa; for electrical conductivity: Alternating current cell with electrodes; for mass density: Vibrating tube method; for viscosity: Concentric cylinders viscometry

CCCCCCCCOS(=O)(=O)[O-].CCn1cc[n+](C)c1 [1-ethyl-3-methylimidazolium octyl sulfate] + O
electrical conductivity (251.8 K, Glass, x1 = 0.5001): 0.013 ± 0.003 S/m
electrical conductivity (251.9 K, Glass, x1 = 0.5001): 0.014 ± 0.003 S/m
electrical conductivity (254.1 K, Glass, x1 = 0.5001): 0.016 S/m and 0.017 S/m
electrical conductivity (255.1 K, Glass, x1 = 0.5001): 0.018 ± 0.003 S/m
electrical conductivity (256.1 K, Glass, x1 = 0.5001): 0.02 ± 0.003 S/m
electrical conductivity (257.1 K, Glass, x1 = 0.4688): 0.023 ± 0.003 S/m
electrical conductivity (257.1 K, Glass, x1 = 0.5001): 0.022 ± 0.003 S/m
electrical conductivity (258.1 K, Glass, x1 = 0.5001): 0.023 ± 0.003 S/m
electrical conductivity (259.1 K, Glass, x1 = 0.4688): 0.028 ± 0.003 S/m
electrical conductivity (259.1 K, Liquid, x1 = 0.5001): 0.025 ± 0.003 S/m
electrical conductivity (261.1 K, Glass, x1 = 0.4688): 0.032 S/m and 0.031 S/m
electrical conductivity (261.1 K, Liquid, x1 = 0.0803): 0.56 ± 0.012 S/m
electrical conductivity (261.1 K, Liquid, x1 = 0.5001): 0.029 ± 0.003 S/m
electrical conductivity (263.1 K, Glass, x1 = 0.2119): 0.228 ± 0.005 S/m
electrical conductivity (263.1 K, Glass, x1 = 0.4688): 0.036 S/m and 0.038 S/m
electrical conductivity (263.1 K, Liquid, x1 = 0.0586): 0.703 ± 0.016 S/m
electrical conductivity (263.1 K, Liquid, x1 = 0.0803): 0.611 ± 0.013 S/m
electrical conductivity (263.1 K, Liquid, x1 = 0.5001): 0.034 ± 0.003 S/m
electrical conductivity (264.1 K, Glass, x1 = 0.1197): 0.479 ± 0.011 S/m
electrical conductivity (265.1 K, Liquid, x1 = 0.0803): 0.667 S/m and 0.622 S/m
electrical conductivity (266.1 K, Glass, x1 = 0.4688): 0.045 ± 0.003 S/m
electrical conductivity (266.1 K, Liquid, x1 = 0.0803): 0.688 ± 0.015 S/m
electrical conductivity (267.1 K, Glass, x1 = 0.4688): 0.049 ± 0.003 S/m
electrical conductivity (268.1 K, Glass, x1 = 0.1197): 0.566 ± 0.012 S/m
electrical conductivity (268.1 K, Glass, x1 = 0.2119): 0.29 ± 0.007 S/m
electrical conductivity (268.1 K, Glass, x1 = 0.4108): 0.085 ± 0.003 S/m
electrical conductivity (268.1 K, Glass, x1 = 0.4688): 0.051 ± 0.003 S/m
electrical conductivity (268.1 K, Liquid, x1 = 0.0401): 0.898 ± 0.019 S/m
electrical conductivity (268.1 K, Liquid, x1 = 0.0586): 0.867 ± 0.02 S/m
electrical conductivity (268.1 K, Liquid, x1 = 0.0803): 0.755 S/m and 0.753 S/m
electrical conductivity (268.1 K, Liquid, x1 = 0.4688): 0.052 ± 0.003 S/m
electrical conductivity (268.1 K, Liquid, x1 = 0.5001): 0.048 ± 0.003 S/m
electrical conductivity (269.1 K, Glass, x1 = 0.1197): 0.591 S/m and 0.59 S/m
electrical conductivity (269.1 K, Liquid, x1 = 0.0586): 0.897 ± 0.019 S/m
electrical conductivity (269.1 K, Liquid, x1 = 0.4688): 0.054 ± 0.003 S/m
mass density (269.1 K, Liquid, x1 = 0.1197): 1084.1 ± 1 kg/m3
viscosity (269.6 K, Glass, x1 = 0.4108): 16300 ± 7600 mPa·s
mass density (269.6 K, Liquid, x1 = 0.4108): 1107.2 ± 1 kg/m3
electrical conductivity (270.1 K, Glass, x1 = 0.1197): 0.617 S/m and 0.616 S/m
viscosity (270.1 K, Glass, x1 = 0.1197): 19170 mPa·s
viscosity (270.1 K, Glass, x1 = 0.4108): 5510 ± 1500 mPa·s
electrical conductivity (270.1 K, Liquid, x1 = 0.0401): 0.968 ± 0.02 S/m
electrical conductivity (270.1 K, Liquid, x1 = 0.4688): 0.059 S/m and 0.058 S/m
mass density (270.1 K, Liquid, x1 = 0.1197): 1083.7 ± 1 kg/m3
mass density (270.1 K, Liquid, x1 = 0.4108): 1107 ± 1 kg/m3
viscosity (270.6 K, Glass, x1 = 0.4108): 2431 ± 460 mPa·s
mass density (270.6 K, Liquid, x1 = 0.4108): 1106.7 ± 1 kg/m3
electrical conductivity (271.1 K, Glass, x1 = 0.1197): 0.641 S/m and 0.639 S/m
electrical conductivity (271.1 K, Glass, x1 = 0.4108): 0.1 ± 0.003 S/m
viscosity (271.1 K, Glass, x1 = 0.1197): 16390 ± 7600 mPa·s
viscosity (271.1 K, Glass, x1 = 0.4108): 1385 ± 210 mPa·s
electrical conductivity (271.1 K, Liquid, x1 = 0.0803): 0.862 ± 0.019 S/m
mass density (271.1 K, Liquid, x1 = 0.1197): 1083.1 ± 1 kg/m3
mass density (271.1 K, Liquid, x1 = 0.4108): 1106.4 ± 1 kg/m3
viscosity (271.6 K, Glass, x1 = 0.4108): 889.3 ± 110 mPa·s
mass density (271.6 K, Liquid, x1 = 0.4108): 1106.1 ± 1 kg/m3
electrical conductivity (272.1 K, Glass, x1 = 0.1197): 0.667 ± 0.014 S/m
electrical conductivity (272.1 K, Glass, x1 = 0.4108): 0.104 ± 0.003 S/m
viscosity (272.1 K, Glass, x1 = 0.1197): 11470 ± 4400 mPa·s
electrical conductivity (272.1 K, Liquid, x1 = 0.0401): 1.03 ± 0.022 S/m
electrical conductivity (272.1 K, Liquid, x1 = 0.1197): 0.666 ± 0.015 S/m
viscosity (272.1 K, Liquid, x1 = 0.4108): 609.1 ± 67 mPa·s
mass density (272.1 K, Liquid, x1 = 0.1197): 1082.6 ± 1 kg/m3
mass density (272.1 K, Liquid, x1 = 0.4108): 1105.7 ± 1 kg/m3
electrical conductivity (273.1 K, Glass, x1 = 0.1402): 0.597 ± 0.013 S/m
electrical conductivity (273.1 K, Glass, x1 = 0.2119): 0.371 S/m and 0.368 S/m
electrical conductivity (273.1 K, Glass, x1 = 0.3076): 0.203 ± 0.005 S/m
electrical conductivity (273.1 K, Glass, x1 = 0.3555): 0.147 ± 0.003 S/m
electrical conductivity (273.1 K, Glass, x1 = 0.4108): 0.111 ± 0.004 S/m
viscosity (273.1 K, Glass, x1 = 0.1197): 9033 ± 3100 mPa·s
electrical conductivity (273.1 K, Liquid, x1 = 0.0401): 1.07 S/m
electrical conductivity (273.1 K, Liquid, x1 = 0.0586): 1.04 S/m
electrical conductivity (273.1 K, Liquid, x1 = 0.0803): 0.921 ± 0.02 S/m
electrical conductivity (273.1 K, Liquid, x1 = 0.1197): 0.695 ± 0.015 S/m
electrical conductivity (273.1 K, Liquid, x1 = 0.4688): 0.073 S/m and 0.07 S/m
electrical conductivity (273.1 K, Liquid, x1 = 0.5001): 0.066 ± 0.003 S/m
viscosity (273.1 K, Liquid, x1 = 0.4108): 564.7 ± 60 mPa·s
mass density (273.1 K, Liquid, x1 = 0.1197): 1082 ± 1 kg/m3
mass density (273.1 K, Liquid, x1 = 0.4108): 1105 ± 1 kg/m3
viscosity (274.1 K, Glass, x1 = 0.1197): 6783 ± 2000 mPa·s
electrical conductivity (274.1 K, Liquid, x1 = 0.1197): 0.723 ± 0.016 S/m
electrical conductivity (274.1 K, Liquid, x1 = 0.4108): 0.117 ± 0.003 S/m
viscosity (274.1 K, Liquid, x1 = 0.4108): 524.2 ± 54 mPa·s
mass density (274.1 K, Liquid, x1 = 0.1197): 1081.5 ± 1.1 kg/m3
mass density (274.1 K, Liquid, x1 = 0.4108): 1104.3 ± 1 kg/m3
viscosity (275.1 K, Glass, x1 = 0.1197): 4354 ± 1000 mPa·s
electrical conductivity (275.1 K, Liquid, x1 = 0.1197): 0.75 ± 0.016 S/m
electrical conductivity (275.1 K, Liquid, x1 = 0.4108): 0.123 ± 0.004 S/m
viscosity (275.1 K, Liquid, x1 = 0.4108): 487.1 ± 49 mPa·s
mass density (275.1 K, Liquid, x1 = 0.1197): 1080.9 ± 1 kg/m3
mass density (275.1 K, Liquid, x1 = 0.4108): 1103.6 ± 1 kg/m3
electrical conductivity (276.1 K, Glass, x1 = 0.3555): 0.169 ± 0.004 S/m
viscosity (276.1 K, Glass, x1 = 0.1197): 2361 ± 430 mPa·s
electrical conductivity (276.1 K, Liquid, x1 = 0.0803): 1.02 ± 0.021 S/m
electrical conductivity (276.1 K, Liquid, x1 = 0.4688): 0.086 ± 0.003 S/m
mass density (276.1 K, Liquid, x1 = 0.1197): 1080.3 ± 1 kg/m3
electrical conductivity (277.1 K, Glass, x1 = 0.3555): 0.181 ± 0.004 S/m
viscosity (277.1 K, Glass, x1 = 0.1197): 1248 ± 170 mPa·s
electrical conductivity (277.1 K, Liquid, x1 = 0.1197): 0.807 S/m and 0.806 S/m
mass density (277.1 K, Liquid, x1 = 0.1197): 1079.7 ± 1 kg/m3
viscosity (277.6 K, Glass, x1 = 0.3555): 5137 ± 1300 mPa·s
mass density (277.6 K, Liquid, x1 = 0.3555): 1100 ± 1 kg/m3
viscosity (277.9 K, Glass, x1 = 0.3555): 2995 ± 600 mPa·s and 2875 ± 560 mPa·s
mass density (277.9 K, Liquid, x1 = 0.3555): 1099.9 ± 1 kg/m3
electrical conductivity (278.1 K, Glass, x1 = 0.1402): 0.731 S/m and 0.732 S/m
electrical conductivity (278.1 K, Glass, x1 = 0.1605): 0.677 ± 0.015 S/m
electrical conductivity (278.1 K, Glass, x1 = 0.2119): 0.46 ± 0.01 S/m
electrical conductivity (278.1 K, Glass, x1 = 0.3076): 0.259 S/m and 0.258 S/m
